Test results published in paper PMC4506051, “Pharmacokinetic Profiles of Active Ingredients and Its Metabolites Derived from Rikkunshito, a Ghrelin Enhancer, in Healthy Japanese Volunteers: A Cross-Over, Randomized Study” (PLoS ONE, 2015).
Like-named read-outs stand apart in the source and are kept apart here.

Key:
[1] = Method validation: stability in blood
[2] = Exploratory trial: amount of rikkunshito ingredients in urine; format: in vivo, human; conditions: mean ± S.D., n = 4
Procedure, shortened: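 LC–MS/MS measurement of rikkunshito constituents in urine fractions (pre-dose, 0–4 h, 4–8 h) following one 7.5 g oral dose. Other constituents: enzymatic deglucuronidation at 37 °C for 2 h, then SPE cleanup with atractylenolide III or digoxin as IS; synephrine: erythromycin IS, Ostro plate.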

ghrelin secretion = conditions: cited from earlier work
5-HT2BR = system: 5-HT2BR; design: method as in PMID 18439428; conditions: cited from earlier work
[3] = system: cisplatin-induced anorexia model; conditions: cited from earlier work
[4] = Method validation: freeze-thaw stability in plasma; conditions: deep freezer (−30°C to −10°C), after 3 cycles of freeze-thaw
[5] = Method validation: short-term stability in plasma
[6] = Exploratory trial: plasma concentration of rikkunshito ingredients after single oral rikkunshito 7.5 g; format: in vivo
Procedure, shortened: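 Plasma and urine levels were measured by LC–MS/MS after one 7.5 g oral dose of rikkunshito. Samples were collected before dosing and at 0.5–8 h for blood, or in 0–4 h and 4–8 h fractions for urine. Synephrine was determined after protein-removal plate cleanup; the other ingredients after β-glucuronidase deconjugation (2 h, 37°C) and SPE.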

[7] = Dose proportionality (linearity) test by power model for C max and AUC0-last; conditions: rikkunshito 2.5, 5.0 or 7.5 g
Description: The dose proportionality was analyzed via a power model [21, 22]. […] Evaluation of linearity of the dosage-exposure relationship was conducted with Phoenix WinNonlin and SAS 9.2 (SAS Institute, Inc., Cary, NC).

[8] = Method validation: long-term stability in plasma
5-HT2CR = system: 5-HT2CR; design: method as in PMID 18439428; conditions: cited from earlier work
[9] = Method validation: post-preparative stability (autosampler)
[10] = Exploratory trial: ingredients in β-glucuronidase (enzyme)-treated plasma; format: in vivo, human; conditions: rikkunshito 7.5 g
Procedure, shortened: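 Healthy subjects took a single oral 7.5 g dose of rikkunshito; heparinised plasma drawn at 0–8 h and urine collected pre-dose, 0–4 h and 4–8 h. Samples incubated with β-glucuronidase (100 units) 2 h at 37°C, solid-phase extracted and quantified by LC–MS/MS.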

[11] = Exploratory trial: ingredients in β-glucuronidase (enzyme)-treated urine; format: in vivo, human; conditions: β-glucuronidase-treated, mean ± S.D., n = 4
Description: In the first exploratory trial, 20-mL blood samples were collected from the cutaneous vein in the subjects’ forearm via a blood sampling tube that contained heparin at 0 (preadministration), 0.5, 1, 2, 4, and 8 h after a single oral administration of rikkunshito (Lot E24652). The dose of rikkunshito used in this trial was 7.5 g/day, which is the clinical daily dose, to widely explore rikkunshito-derived ingredients that enter the blood. Along with plasma, urine samples were collected at three points: between dinner and bedtime (preadministration), between 0 and 4 h after administration, and between 4 and 8 h after administration. The blood was immediately centrifuged at 1700 ×g for 10 min to obtain plasma. Plasma and urine fractions were stored at −80°C or lower until analysis.
For quantification of 30 ingredients other than atractylodin and synephrine, 25 µL of standard solution or methanol was added to 500 µL plasma or urine samples followed by mixing. Atractylenolide III or digoxin (IS) solution (50 μL) was added to the solutions followed by mixing. For urine, 400 µL of blank plasma was added to the solutions. Ammonium acetate solution (100 mM, 100 or 400 µL) was added to the solutions followed by mixing. For enzymatic treatment, plasma and urine samples were incubated with β-glucuronidase (100 units in 100 mM ammonium acetate) for 2 h at 37°C. A solid-phase cartridge (OASIS HLB, 30 mg/1cc, Waters) was conditioned with methanol and 10 mM ammonium acetate solution, and the samples were loaded onto the cartridge. The cartridge was washed water : methanol (9:1, v/v), and 1.5 mL of methanol and 30 µL of propylene glycol were added to the cartridge to elute the analytes. The mixtures were dried at 25°C under a stream of nitrogen gas. Furthermore, 100 μL of 10 mM ammonium acetate : methanol (8:2, v/v) was added to the dried samples followed by mixing and sonication. The solutions were filtered (0.22 µm) and followed by injection into the LC–MS/MS system. […] Those analytical conditions are summarized in S2 Table and S3 Table.

[12] = oral administration at a dose of 4.0 mg/kg

O=C(/C=C/c1ccc(O)cc1)c1ccc(O)cc1O [Isoliquiritigenin]
Stability in blood, RR ([1]; 4 pg/mL, at room temperature for 2 h): 81.0%
Stability in blood, RR ([1]; 4 pg/mL, on ice for 2 h): 103.0%
Stability in blood, RR ([1]; 160 pg/mL, at room temperature for 2 h): 46.8%
Stability in blood, RR ([1]; 160 pg/mL, on ice for 2 h): 90.2%
Amount in urine, 0–4 h ([2]; 0–4 h after single oral rikkunshito 7.5 g): 741 ± 393 ng
Amount in urine, 4–8 h ([2]; 4–8 h after single oral rikkunshito 7.5 g): 1010 ± 451 ng
Amount in urine, Pre ([2]; preadministration (between dinner and bedtime)): 0.688 ± 1.38 ng
Known pharmacology activities: ghrelin secretion (ghrelin secretion): Ghrelin secretion promoting activity [14, 15]
5-HT2BR inhibitory/antagonistic activity (5-HT2BR): inhibits
5-HT2BR inhibitory/antagonistic activity (5-HT2BR; listed as isoliquiritigenin): inhibit
Appetite following cisplatin administration [3, 12]: improves decreased appetite
Plasma ghrelin concentration following cisplatin administration [3, 12]: inhibits a decrease in plasma ghrelin concentration
Acylated ghrelin level in blood ([3]; oral administration, cisplatin-induced anorexia model): suppressed the decrease of the acylated ghrelin level in blood in a concentration-dependent manner
Freeze-thaw stability, RR ([4]; 4 pg/mL): 95.3%
Freeze-thaw stability, RR ([4]; 160 pg/mL): 88.3%
Short-term stability, RR ([5]; 4 pg/mL, at room temperature for 4 h): 97.0%
Short-term stability, RR ([5]; 4 pg/mL, at room temperature for 24 h): 96.5%
Short-term stability, RR ([5]; 160 pg/mL, at room temperature for 4 h): 85.2%
Short-term stability, RR ([5]; 160 pg/mL, at room temperature for 24 h): 101.2%
Plasma concentration, 0 h ([6]; 0 h (preadministration), single oral rikkunshito 7.5 g, mean ± S.D., n = 4): BQL
Plasma concentration, 1 h ([6]; 1 h after single oral rikkunshito 7.5 g, mean ± S.D., n = 4): BQL
Plasma concentration, 4 h ([6]; 4 h after single oral rikkunshito 7.5 g, mean ± S.D., n = 4): BQL
Plasma concentration, 8 h ([6]; 8 h after single oral rikkunshito 7.5 g, mean ± S.D., n = 4): BQL
concentration at 0.5 h ([6]; human, in vivo, po): 0.0153 ng/mL
concentration at 2 h ([6]; human, in vivo, po): 0.0171 ± 0.0343 ng/mL
Plasma concentration, 0.5 h ([6]; human, in vivo, po, 0.5 h): 15.3 ± 18.0 pg/mL
Dose proportionality test using power model, β ([7]; AUC0-last): 1.27
Dose proportionality test using power model, β ([7]; Cmax): 0.692
Long-term stability, RR ([8]; 4 pg/mL, freezer (−30°C to −10°C) for 22 days): 99.0%
Long-term stability, RR ([8]; 4 pg/mL, freezer (−30°C to −10°C) for 31 days): 105.0%
Long-term stability, RR ([8]; 4 pg/mL, freezer (−30°C to −10°C) for 220 days): 102.8%
Long-term stability, RR ([8]; 160 pg/mL, freezer (−30°C to −10°C) for 22 days): 95.0%
Long-term stability, RR ([8]; 160 pg/mL, freezer (−30°C to −10°C) for 31 days): 87.7%
Long-term stability, RR ([8]; 160 pg/mL, freezer (−30°C to −10°C) for 220 days): 85.5%
5-HT2CR inhibitory activity (5-HT2CR): inhibits
5-HT2CR inhibitory activity (5-HT2CR; listed as isoliquiritigenin): inhibit
Post-preparative stability, RR ([9]; 4 pg/mL, autosampler set at 4°C for 25 h): 110.0%
Post-preparative stability, RR ([9]; 4 pg/mL, autosampler set at 4°C for 48 h): 88.0%
Post-preparative stability, RR ([9]; 160 pg/mL, autosampler set at 4°C for 25 h): 115.2%
Post-preparative stability, RR ([9]; 160 pg/mL, autosampler set at 4°C for 48 h): 93.8%
Cmax ([10]; human, oral, β-glucuronidase-treated plasma, four subjects, read-out: C max in enzyme-treated plasma): 0.0872 ng/mL
concentration at 0.5 h ([10]; human, plasma, oral, β-glucuronidase-treated, 0.5 h, mean ± S.D., n = 4): 0.0872 ± 0.0221 ng/mL
concentration at 1 h ([10]; human, plasma, oral, β-glucuronidase-treated, 1 h, mean ± S.D., n = 4): 0.0555 ± 0.0187 ng/mL
concentration at 2 h ([10]; human, plasma, oral, β-glucuronidase-treated, 2 h, mean ± S.D., n = 4, read-out: Plasma concentration in enzyme-treated plasma, 2 h): 0.0606 ± 0.0774 ng/mL
concentration at 4 h ([10]; human, plasma, oral, β-glucuronidase-treated, 4 h, mean ± S.D., n = 4, read-out: Plasma concentration in enzyme-treated plasma, 4 h): 0.0698 ± 0.0335 ng/mL
concentration at 8 h ([10]; human, plasma, oral, β-glucuronidase-treated, 8 h, mean ± S.D., n = 4, read-out: Plasma concentration in enzyme-treated plasma, 8 h): 0.0238 ± 0.0354 ng/mL
Plasma concentration in enzyme-treated plasma, 0 h ([10]; β-glucuronidase-treated, 0 h (preadministration), mean ± S.D., n = 4): BQL
Amount in enzyme-treated urine, 0–4 h ([11]; 0–4 h after rikkunshito 7.5 g): 3060 ± 348 ng
Amount in enzyme-treated urine, 4–8 h ([11]; 4–8 h after rikkunshito 7.5 g): 5630 ± 2210 ng
Amount in enzyme-treated urine, Pre ([11]; preadministration): 16.0 ± 17.4 ng
